Results: patent US20260007133A1, “HERBICIDAL COMPOSITION COMPRISING AZINE COMPOUNDS” (BASF SE, priority 2022, published 2026)

Experiments:
Format in all cases: in vivo
Abutilon theophrasti [1] = experiment: Greenhouse pre-emergence (PRE) herbicidal test on ABUTH; conditions: PRE, 20 DAT; for % activity solo application: ABUTH
Method in brief: (§1)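 Seeds were sown per species in loamy sand with ~3.0% humus, treated pre-emergence and kept at 10-25° C or 20-35° C depending on species. Damage was scored at 20 days after treatment on a 0-100 scale (100 = no emergence or complete destruction of above-ground parts, 0 = no damage).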

Amaranthus retroflexus = experiment: Greenhouse pre-emergence (PRE) herbicidal test on AMARE; conditions: PRE, 20 DAT; for % activity solo application: AMARE
Protocol: The culture containers used were plastic pots containing loamy sand with approximately 3.0% of humus as substrate. The seeds of the test plants were sown separately for each species.
The containers were irrigated gently to promote germination and growth and subsequently covered with transparent plastic hoods until the plants had rooted.
Depending on the species, the plants were kept at 10-25° C. and 20-35° C., respectively.
The test period extended over 2 to 4 weeks. During this time, the plants were tended and their response to the individual treatments was evaluated.
Evaluation was carried out using a scale from 0 to 100. 100 means no emergence of the plants, or complete destruction of at least the above-ground parts, and 0 means no damage or normal course of growth. A good herbicidal activity is given at values of at least 70, and very good herbicidal activity is given at values of at least 85.
As indicated application was either post emergent (POST) at the respective growth stage (GS) of the weed (BBCH code), or pre-emergent (PRE). […]

Ambrosia artemisiifolia = experiment: Greenhouse pre-emergence (PRE) herbicidal test on AMBEL; conditions: 20 DAT; for % activity solo application: AMBEL
Commelina benghalensis = experiment: Greenhouse pre-emergence (PRE) herbicidal test on COMBE; conditions: 20 DAT; for % activity solo application: COMBE
Method in brief: as §1

Euphorbia heterophylla [2] = experiment: Greenhouse pre-emergence (PRE) herbicidal test on EPHHL; conditions: 20 DAT; for % activity solo application: EPHHL
Method in brief: as §1

Lolium multiflorum = experiment: Greenhouse pre-emergence (PRE) herbicidal test on LOLMU; conditions: 20 DAT
Method in brief: as §1

Setaria viridis = experiment: Greenhouse pre-emergence (PRE) herbicidal test on SETVI; conditions: PRE, 20 DAT; for % activity solo application: SETVI
Method in brief: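 Seeds sown in loamy sand (~3.0% humus); compounds in water applied by fine nozzles directly after sowing, then pots irrigated and hooded until rooting. Plants held at 10-25° C or 20-35° C by species; damage scored 0-100 (100 = no emergence/complete destruction) 20 days after treatment.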

Digitaria sanguinalis = experiment: Greenhouse post-emergence (POST) herbicidal test on DIGSA; conditions: 20 DAT; for % activity solo application: DIGSA
Method in brief: (§2)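 Plants grown in pots of loamy sand (~3.0% humus) to 3–15 cm height, then sprayed with compounds suspended or emulsified in water (formulated as 5% by weight emulsion concentrate). Kept at 10-25° C or 20-35° C by species; injury scored 0–100 (100 = complete destruction) at 20 DAT.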

Echinochloa crus-galli [3] = experiment: Greenhouse post-emergence (POST) herbicidal test on ECHCG; conditions: Echinochloa crus-galli, post-emergence, 480 h, 20 DAT
Method in brief: as §2

Euphorbia heterophylla [4] = experiment: Greenhouse post-emergence (POST) herbicidal test on EPHHL; conditions: 20 DAT
Method in brief: as §2

Geranium pusillum = experiment: Greenhouse post-emergence (POST) herbicidal test on GERPU; conditions: Geranium pusillum, post-emergence, 480 h, 20 DAT
Method in brief: as §2

Echinochloa crus-galli [5] = experiment: Greenhouse pre-emergence (PRE) herbicidal test on ECHCG; conditions: PRE, 20 DAT; for % activity solo application: ECHCG
Alopecurus myosuroides = experiment: Greenhouse pre-emergence (PRE) herbicidal test on ALOMY; conditions: PRE, ALOMY, 20 DAT
Method in brief: as §1

Abutilon theophrasti [6] = experiment: Greenhouse post-emergence (POST) herbicidal test on ABUTH; conditions: POST, ABUTH, 16 gai/ha, 20 DAT
Method in brief: as §2

CCOC(=O)COc1ccccc1Oc1nc(-n2c(=O)cc(C(F)(F)F)n(C)c2=O)c(F)cc1Cl [2-[2-[[3-chloro-6-[3,6-dihydro-3-methyl-2,6-dioxo-4-(trifluoromethyl)-1(2H)-pyrimidinyl]-5-fluoro-2-pyridinyl]oxy]phenoxy]acetic acid ethyl ester]
pest or weed control at […] (Abutilon theophrasti [1]; Abutilon theophrasti, pre-emergence, 480 h, 0.25 gai/ha): 0%
pest or weed control at 0.5 g/ha (Abutilon theophrasti [1]; Abutilon theophrasti, pre-emergence, 480 h, 0.5 gai/ha): 10%
pest or weed control at 0.5 g/ha (Amaranthus retroflexus; Amaranthus retroflexus, pre-emergence, 480 h, 0.5 gai/ha): 0%
inhibition at […] (Ambrosia artemisiifolia; Ambrosia artemisiifolia, pre-emergence, 480 h, AMBEL PRE, use rate 0.25 gai/ha, read-out: % activity): 0%
inhibition at 0.5 g/ha (Ambrosia artemisiifolia; Ambrosia artemisiifolia, pre-emergence, 480 h, AMBEL PRE, use rate 0.5 gai/ha, read-out: % activity): 0%
pest or weed control at […] (Ambrosia artemisiifolia; Ambrosia artemisiifolia, pre-emergence, 480 h, PRE, 0.25 gai/ha): 0%
inhibition at […] (Commelina benghalensis; Commelina benghalensis, pre-emergence, 480 h, COMBE PRE, use rate 0.25 gai/ha, read-out: % activity): 0%
inhibition at 0.5 g/ha (Commelina benghalensis; Commelina benghalensis, pre-emergence, 480 h, COMBE PRE, use rate 0.5 gai/ha): 0%
pest or weed control at 0.5 g/ha (Commelina benghalensis; Commelina benghalensis, pre-emergence, 480 h, PRE, 0.5 gai/ha): 0%
inhibition at […] (Euphorbia heterophylla [2]; Euphorbia heterophylla, pre-emergence, 480 h, EPHHL PRE, use rate 0.25 gai/ha, read-out: % activity): 5%
inhibition at 0.5 g/ha (Euphorbia heterophylla [2]; Euphorbia heterophylla, pre-emergence, 480 h, EPHHL PRE, use rate 0.5 gai/ha, read-out: % activity): 0%
pest or weed control at […] (Euphorbia heterophylla [2]; Euphorbia heterophylla, pre-emergence, 480 h, PRE, 0.25 gai/ha): 5%
pest or weed control at 0.5 g/ha (Euphorbia heterophylla [2]; Euphorbia heterophylla, pre-emergence, 480 h, PRE, 0.5 gai/ha): 0%
inhibition at […] (Lolium multiflorum; Lolium multiflorum, pre-emergence, 480 h, LOLMU PRE, use rate 0.25 gai/ha, read-out: % activity): 0%
pest or weed control at […] (Lolium multiflorum; Lolium multiflorum, pre-emergence, 480 h, PRE, 0.25 gai/ha): 0%
pest or weed control at 0.5 g/ha (Lolium multiflorum; Lolium multiflorum, pre-emergence, 480 h, PRE, 0.5 gai/ha): 0%
pest or weed control at […] (Setaria viridis; Setaria viridis, pre-emergence, 480 h, 0.25 gai/ha): 0%
pest or weed control at 0.5 g/ha (Setaria viridis; Setaria viridis, pre-emergence, 480 h, 0.5 gai/ha): 0%
inhibition at 0.5 g/ha (Digitaria sanguinalis; Digitaria sanguinalis, post-emergence, 480 h, DIGSA POST, use rate 0.5 gai/ha): 80%
pest or weed control at […] (Digitaria sanguinalis; Digitaria sanguinalis, post-emergence, 480 h, POST, 0.25 gai/ha): 15%
inhibition at […] (Echinochloa crus-galli [3]; ECHCG POST, use rate 0.25 gai/ha): 15%
inhibition at 0.5 g/ha (Echinochloa crus-galli [3]; ECHCG POST, use rate 0.5 gai/ha, read-out: % activity): 80%
inhibition at […] (Euphorbia heterophylla [4]; Euphorbia heterophylla, post-emergence, 480 h, EPHHL POST, use rate 0.25 gai/ha): 50%
pest or weed control at […] (Euphorbia heterophylla [4]; Euphorbia heterophylla, post-emergence, 480 h, POST, 0.25 gai/ha): 50%
inhibition at 0.5 g/ha (Geranium pusillum; GERPU POST, use rate 0.5 gai/ha): 85%
pest or weed control at 0.5 g/ha (Geranium pusillum; POST, 0.5 gai/ha): 85%

COCc1cnc(C2=NC(C)(C(C)C)C(=O)N2)c(C(=O)O)c1 (centres unmarked) [Imazamox, imazamox]
pest or weed control at 1 g/ha (Abutilon theophrasti [1]; Abutilon theophrasti, pre-emergence, 480 h, 1 gai/ha): 10%
pest or weed control at 2 g/ha (Amaranthus retroflexus; Amaranthus retroflexus, pre-emergence, 480 h, 2 gai/ha): 25%
pest or weed control at 1 g/ha (Ambrosia artemisiifolia; Ambrosia artemisiifolia, pre-emergence, 480 h, PRE, 1 gai/ha): 0%
pest or weed control at 2 g/ha (Ambrosia artemisiifolia; Ambrosia artemisiifolia, pre-emergence, 480 h, PRE, 2 gai/ha, read-out: % activity): 0%
pest or weed control at 1 g/ha (Commelina benghalensis; Commelina benghalensis, pre-emergence, 480 h, PRE, 1 gai/ha): 0%
pest or weed control at 2 g/ha (Commelina benghalensis; Commelina benghalensis, pre-emergence, 480 h, PRE, 2 gai/ha, read-out: % activity): 0%
pest or weed control at 1 g/ha (Echinochloa crus-galli [5]; Echinochloa crus-galli, pre-emergence, 480 h, 1 gai/ha): 0%
pest or weed control at 1 g/ha (Euphorbia heterophylla [2]; Euphorbia heterophylla, pre-emergence, 480 h, PRE, 1 gai/ha): 10%
pest or weed control at 2 g/ha (Euphorbia heterophylla [2]; Euphorbia heterophylla, pre-emergence, 480 h, PRE, 2 gai/ha): 15%
pest or weed control at 1 g/ha (Lolium multiflorum; Lolium multiflorum, pre-emergence, 480 h, PRE, 1 gai/ha): 0%
pest or weed control at 2 g/ha (Setaria viridis; Setaria viridis, pre-emergence, 480 h, 2 gai/ha): 5%
pest or weed control at 2 g/ha (Digitaria sanguinalis; Digitaria sanguinalis, post-emergence, 480 h, POST, 2 gai/ha): 55%
pest or weed control at 2 g/ha (Echinochloa crus-galli [3]; POST, 2 gai/ha): 55%
pest or weed control at 1 g/ha (Euphorbia heterophylla [4]; Euphorbia heterophylla, post-emergence, 480 h, POST, 1 gai/ha): 10%
pest or weed control at 2 g/ha (Euphorbia heterophylla [4]; Euphorbia heterophylla, post-emergence, 480 h, POST, 2 gai/ha): 10%

FC(F)c1cc(-c2c(Cl)cccc2Oc2ncc(Cl)cn2)on1 [Rimisoxafen, rimisoxafen]
% activity solo application (Abutilon theophrasti [1]; 4 gai/ha): 0%
% activity solo application (Abutilon theophrasti [1]; 8 gai/ha): 5%
% activity solo application (Abutilon theophrasti [1]; 16 gai/ha): 5%
% activity solo application (Abutilon theophrasti [1]; 32 gai/ha): 35%
% activity solo application (Alopecurus myosuroides; 4 gai/ha): 0%
% activity solo application (Alopecurus myosuroides; 8 gai/ha): 0%
% activity solo application (Alopecurus myosuroides; 16 gai/ha): 0%
% activity solo application (Alopecurus myosuroides; 32 gai/ha): 0%
% activity solo application (Amaranthus retroflexus; 8 gai/ha): 25%
% activity solo application (Amaranthus retroflexus; 16 gai/ha): 75%
% activity solo application (Ambrosia artemisiifolia; PRE, 4 gai/ha): 0%
% activity solo application (Ambrosia artemisiifolia; PRE, 8 gai/ha): 0%
% activity solo application (Ambrosia artemisiifolia; PRE, 16 gai/ha): 0%
% activity solo application (Ambrosia artemisiifolia; PRE, 32 gai/ha): 0%
% activity solo application (Commelina benghalensis; PRE, 4 gai/ha): 0%
% activity solo application (Commelina benghalensis; PRE, 8 gai/ha): 10%
% activity solo application (Commelina benghalensis; PRE, 16 gai/ha): 0%
% activity solo application (Commelina benghalensis; PRE, 32 gai/ha): 30%
% activity solo application (Echinochloa crus-galli [5]; 4 gai/ha): 0%
% activity solo application (Echinochloa crus-galli [5]; 8 gai/ha): 0%
% activity solo application (Echinochloa crus-galli [5]; 16 gai/ha): 0%
% activity solo application (Echinochloa crus-galli [5]; 32 gai/ha): 0%
% activity solo application (Euphorbia heterophylla [2]; PRE, 8 gai/ha): 0%
% activity solo application (Euphorbia heterophylla [2]; PRE, 16 gai/ha): 0%
% activity solo application (Lolium multiflorum; PRE, LOLMU, 8 gai/ha): 0%
% activity solo application (Setaria viridis; 8 gai/ha): 35%
% activity solo application (Setaria viridis; 16 gai/ha): 35%
% activity solo application (Abutilon theophrasti [6]): 80%
% activity solo application (Digitaria sanguinalis; POST, 4 gai/ha): 5%
% activity solo application (Digitaria sanguinalis; POST, 8 gai/ha): 5%
% activity solo application (Digitaria sanguinalis; POST, 16 gai/ha): 10%
% activity solo application (Digitaria sanguinalis; POST, 32 gai/ha): 20%
% activity solo application (Euphorbia heterophylla [4]; POST, EPHHL, 16 gai/ha): 15%
